A short description of series [1]: In vivo biodistribution and regional brain uptake in rats. Particulars: for Biodistribution, blood / Biodistribution, cerebellum / Biodistribution, fat / Biodistribution, heart / Biodistribution, kidney / Biodistribution, liver / Biodistribution, lung / Biodistribution, muscle / Biodistribution, striatum / Biodistribution, total brain: male SD rats, i.v.
For series [2], the system named is PDE10A. The settings on record: unlabeled compounds; cited from earlier work.
Series [3] addresses PDE10A (Rattus norvegicus, UniProt Q9QYJ6).
In series [4] the test system is PDE10A. Particulars: NHP brain.
Where [5] appears, read: rats pretreated with MP-10 2.0 mg/kg 5 min prior to tracer, 30 min p.i.

SMILES strings stand for the structures. “And” between values parts separate entries of the source, which are not always exact repeats. Identical values can stand only once.

PDE10A (Rattus norvegicus, UniProt Q9QYJ6), sequence (Q9QYJ6 whole entry): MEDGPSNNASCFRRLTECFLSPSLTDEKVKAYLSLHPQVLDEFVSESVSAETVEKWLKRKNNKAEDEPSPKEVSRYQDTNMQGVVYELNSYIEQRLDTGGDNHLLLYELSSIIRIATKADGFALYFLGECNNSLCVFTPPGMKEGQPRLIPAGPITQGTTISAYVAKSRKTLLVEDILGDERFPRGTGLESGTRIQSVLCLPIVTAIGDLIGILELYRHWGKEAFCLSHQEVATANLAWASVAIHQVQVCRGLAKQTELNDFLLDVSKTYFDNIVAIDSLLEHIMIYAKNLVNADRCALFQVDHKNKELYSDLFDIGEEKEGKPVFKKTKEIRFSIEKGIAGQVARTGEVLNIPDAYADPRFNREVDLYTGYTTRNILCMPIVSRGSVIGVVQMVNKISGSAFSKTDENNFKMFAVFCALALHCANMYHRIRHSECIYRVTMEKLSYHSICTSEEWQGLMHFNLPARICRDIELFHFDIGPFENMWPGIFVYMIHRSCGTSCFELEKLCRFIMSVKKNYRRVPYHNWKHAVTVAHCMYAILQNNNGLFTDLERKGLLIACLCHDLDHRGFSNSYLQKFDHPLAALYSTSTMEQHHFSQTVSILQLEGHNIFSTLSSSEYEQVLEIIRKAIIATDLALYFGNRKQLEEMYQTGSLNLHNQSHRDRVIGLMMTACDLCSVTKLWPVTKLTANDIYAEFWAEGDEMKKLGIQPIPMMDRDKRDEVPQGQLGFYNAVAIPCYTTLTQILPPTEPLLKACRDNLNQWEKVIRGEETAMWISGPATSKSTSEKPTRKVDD

Take `Cn1cc(-c2ccncc2)c(-c2ccc(OCc3ccc4cc(O[11CH3])ccc4n3)cc2)n1` [[^11C]3, 6-(methoxy-^11C)-2-((4-(1-methyl-4-(pyridin-4-yl)-1H-pyrazol-3-yl)phenoxy)methyl)quinoline]: in series [1] (5 min p.i.), the “Biodistribution, blood” value is recorded as 0.282 ± 0.025 %ID/gram; the “Biodistribution, cerebellum” value is 0.251 ± 0.031 %ID/gram; the “Biodistribution, fat” value is given as 0.139 ± 0.038 %ID/gram; the “Biodistribution, heart” value came to 0.416 ± 0.026 %ID/gram. Besides, in series [1] (5 min p.i.), the “Biodistribution, kidney” value came to 1.333 ± 0.282 %ID/gram; the “Biodistribution, liver” value is reported as 5.357 ± 0.989 %ID/gram; the “Biodistribution, lung” value worked out at 0.744 ± 0.241 %ID/gram; the “Biodistribution, muscle” value came to 0.151 ± 0.027 %ID/gram. Also, in series [1] (5 min p.i.), the “Biodistribution, striatum” value is given as 0.293 ± 0.075 ^b %ID/gram and the “Biodistribution, total brain” value came out at 0.249 ± 0.037 %ID/gram. For the same molecule, in series [1] (30 min p.i. (control)), the “Biodistribution, blood” value is reported as 0.275 ± 0.041 %ID/gram; the “Biodistribution, cerebellum” value is given as 0.090 ± 0.018 %ID/gram; the “Biodistribution, fat” value was found to be 0.221 ± 0.060 %ID/gram; the “Biodistribution, heart” value came out at 0.264 ± 0.032 %ID/gram. Further, in series [1] (30 min p.i. (control)), the “Biodistribution, kidney” value is listed as 0.883 ± 0.123 %ID/gram; the “Biodistribution, liver” value came to 3.172 ± 0.606 %ID/gram; the “Biodistribution, lung” value turned out to be 0.389 ± 0.082 %ID/gram; the “Biodistribution, muscle” value was 0.175 ± 0.009 %ID/gram. Besides, in series [1] (30 min p.i. (control)), the “Biodistribution, striatum” value was 0.160 ± 0.023 ^a %ID/gram and the “Biodistribution, total brain” value is listed as 0.105 ± 0.011 %ID/gram. Besides, in series [1] (60 min p.i.), the “Biodistribution, blood” value worked out at 0.210 ± 0.023 %ID/gram; the “Biodistribution, cerebellum” value is given as 0.066 ± 0.008 %ID/gram; the “Biodistribution, fat” value stood at 0.135 ± 0.026 %ID/gram; the “Biodistribution, heart” value was determined as 0.182 ± 0.020 %ID/gram. In series [1] (60 min p.i.), the “Biodistribution, kidney” value turned out to be 0.637 ± 0.052 %ID/gram; the “Biodistribution, liver” value is 1.724 ± 0.510 %ID/gram; the “Biodistribution, lung” value amounted to 0.249 ± 0.015 %ID/gram; the “Biodistribution, muscle” value was determined as 0.129 ± 0.006 %ID/gram. Moreover, in series [1] (60 min p.i.), the “Biodistribution, striatum” value is reported as 0.089 ± 0.014 ^a %ID/gram and the “Biodistribution, total brain” value is on record as 0.074 ± 0.005 %ID/gram.

Turning to `COc1cc(COc2ccc(-c3nn(C)cc3-c3ccncc3)cc2)nc2ccccc12` [Compound 2], the IC50 in series [2] was 280 ± 60 pM.

On to `COc1ccc2nc(COc3ccc(-c4nn(C)cc4-c4ccncc4)cc3)ccc2c1` [Compound 3], for which the IC50 in series [2] is 1820 ± 250 pM.

`Cn1cc(-c2ccncc2)c(-c2ccc(OCc3cc(O[11CH3])c4ccccc4n3)cc2)n1` [[^11C]2, 4-(methoxy-^11C)-2-((4-(1-methyl-4-(pyridin-4-yl)-1H-pyrazol-3-yl)phenoxy)methyl)quinoline]: in series [3] (setting [5]), the “Distribution, blood, MP-10 block” value is given as 0.343 ± 0.007 %ID/gram; the “Distribution, cerebellum, MP-10 block” value is 0.112 ± 0.011 %ID/gram; the “Distribution, fat, MP-10 block” value is 0.697 ± 0.219 %ID/gram; the “Distribution, heart, MP-10 block” value came to 0.310 ± 0.040 %ID/gram. For the same molecule, in series [3] (setting [5]), the “Distribution, kidney, MP-10 block” value is on record as 1.072 ± 0.069 %ID/gram; the “Distribution, liver, MP-10 block” value was found to be 4.723 ± 0.489 %ID/gram; the “Distribution, lung, MP-10 block” value is 0.362 ± 0.021 %ID/gram; the “Distribution, muscle, MP-10 block” value is 0.224 ± 0.012 %ID/gram. In series [3] (setting [5]), the “Distribution, striatum, MP-10 block” value is recorded as 0.175 ± 0.022 %ID/gram and the “Distribution, total brain, MP-10 block” value is listed as 0.114 ± 0.007 %ID/gram. Besides, the “striatal binding after blocking dose of MP-10” value in series [3] (rats, MP-10 2 mg/kg i.v. 5 min prior to tracer, p < 0.05) was “significant reduction”. Also, the “blood–brain-barrier penetration” value in series [4] is “readily penetrate the blood–brain-barrier”. Further, in series [1] (SD rats, 60 min p.i.), the “striatum: cerebellum ratio” value worked out at 2.5 fold. Besides, in series [1] (5 min p.i.), the “Biodistribution, blood” value is on record as 0.268 ± 0.053 %ID/gram; the “Biodistribution, cerebellum” value worked out at 0.215 ± 0.031 %ID/gram; the “Biodistribution, fat” value is 0.242 ± 0.065 %ID/gram; the “Biodistribution, heart” value turned out to be 0.464 ± 0.023 %ID/gram. For the same molecule, in series [1] (5 min p.i.), the “Biodistribution, kidney” value is listed as 2.340 ± 0.295 %ID/gram; the “Biodistribution, liver” value is given as 7.080 ± 0.435 %ID/gram; the “Biodistribution, lung” value amounted to 0.890 ± 0.206 %ID/gram; the “Biodistribution, muscle” value was determined as 0.258 ± 0.035 %ID/gram. Also, in series [1] (5 min p.i.), the “Biodistribution, striatum” value is reported as 0.352 ± 0.052 ^a %ID/gram and the “Biodistribution, total brain” value is reported as 0.210 ± 0.035 %ID/gram. Moreover, in series [1] (30 min p.i. (control)), the “Biodistribution, blood” value is 0.192 ± 0.075 %ID/gram; the “Biodistribution, cerebellum” value worked out at 0.066 ± 0.023 %ID/gram; the “Biodistribution, fat” value was found to be 0.371 ± 0.091 %ID/gram; the “Biodistribution, heart” value came out at 0.187 ± 0.042 %ID/gram. In addition, in series [1] (30 min p.i. (control)), the “Biodistribution, kidney” value was 1.294 ± 0.268 %ID/gram; the “Biodistribution, liver” value is listed as 10.085 ± 1.972 %ID/gram; the “Biodistribution, lung” value came out at 0.233 ± 0.045 %ID/gram; the “Biodistribution, muscle” value is listed as 0.133 ± 0.035 %ID/gram. Also, in series [1] (30 min p.i. (control)), the “Biodistribution, striatum” value is 0.230 ± 0.030 ^a %ID/gram and 0.230 ± 0.030 %ID/gram; the “Biodistribution, total brain” value was determined as 0.087 ± 0.016 %ID/gram. In series [1] (60 min p.i.), the “Biodistribution, blood” value is on record as 0.152 ± 0.030 %ID/gram; the “Biodistribution, cerebellum” value is 0.046 ± 0.014 %ID/gram; the “Biodistribution, fat” value turned out to be 0.278 ± 0.040 %ID/gram; the “Biodistribution, heart” value was 0.121 ± 0.025 %ID/gram. In series [1] (60 min p.i.), the “Biodistribution, kidney” value was 0.758 ± 0.112 %ID/gram; the “Biodistribution, lung” value was determined as 0.163 ± 0.027 %ID/gram; the “Biodistribution, muscle” value came out at 0.084 ± 0.013 %ID/gram; the “Biodistribution, striatum” value was 0.201 ± 0.037 ^a %ID/gram. For the same molecule, the “Biodistribution, total brain” value in series [1] (60 min p.i.) was determined as 0.057 ± 0.008 %ID/gram.

As to `Cn1ncc(-c2ccncc2)c1-c1ccc(OCc2cc(O[11CH3])c3ccccc3n2)cc1` [[^11C]4, 4-(methoxy-^11C)-2-((4-(1-methyl-4-(pyridin-4-yl)-1H-pyrazol-5-yl)phenoxy)methyl)quinoline], in series [1] (5 min p.i.), the “Biodistribution, blood” value amounted to 0.099 ± 0.015 %ID/gram; the “Biodistribution, cerebellum” value is given as 0.094 ± 0.017 %ID/gram; the “Biodistribution, fat” value is reported as 0.066 ± 0.016 %ID/gram; the “Biodistribution, heart” value came out at 0.335 ± 0.026 %ID/gram. Besides, in series [1] (5 min p.i.), the “Biodistribution, kidney” value is recorded as 1.744 ± 0.316 %ID/gram; the “Biodistribution, liver” value is reported as 3.312 ± 0.494 %ID/gram; the “Biodistribution, lung” value was 0.643 ± 0.196 %ID/gram; the “Biodistribution, muscle” value turned out to be 0.146 ± 0.027 %ID/gram. Besides, in series [1] (5 min p.i.), the “Biodistribution, striatum” value is 0.151 ± 0.033 ^a %ID/gram and the “Biodistribution, total brain” value is given as 0.091 ± 0.017 %ID/gram. Also, in series [1] (30 min p.i. (control)), the “Biodistribution, blood” value stood at 0.067 ± 0.006 %ID/gram; the “Biodistribution, cerebellum” value was 0.024 ± 0.007 %ID/gram; the “Biodistribution, fat” value is listed as 0.139 ± 0.027 %ID/gram; the “Biodistribution, heart” value turned out to be 0.132 ± 0.019 %ID/gram. Moreover, in series [1] (30 min p.i. (control)), the “Biodistribution, kidney” value is 0.645 ± 0.088 %ID/gram; the “Biodistribution, liver” value worked out at 4.430 ± 0.481 %ID/gram; the “Biodistribution, lung” value is given as 0.156 ± 0.020 %ID/gram; the “Biodistribution, muscle” value turned out to be 0.093 ± 0.010 %ID/gram. Also, in series [1] (30 min p.i. (control)), the “Biodistribution, striatum” value is listed as 0.083 ± 0.010 ^a %ID/gram and the “Biodistribution, total brain” value was found to be 0.025 ± 0.004 %ID/gram. In series [1] (60 min p.i.), the “Biodistribution, blood” value stood at 0.067 ± 0.011 %ID/gram; the “Biodistribution, cerebellum” value came to 0.015 ± 0.003 %ID/gram; the “Biodistribution, fat” value turned out to be 0.139 ± 0.058 %ID/gram; the “Biodistribution, heart” value stood at 0.103 ± 0.012 %ID/gram. In addition, in series [1] (60 min p.i.), the “Biodistribution, kidney” value is 0.575 ± 0.075 %ID/gram; the “Biodistribution, liver” value is reported as 4.588 ± 0.577 %ID/gram; the “Biodistribution, lung” value is reported as 0.107 ± 0.016 %ID/gram; the “Biodistribution, muscle” value turned out to be 0.052 ± 0.009 %ID/gram. In series [1] (60 min p.i.), the “Biodistribution, striatum” value was 0.037 ± 0.004 ^a %ID/gram and the “Biodistribution, total brain” value was determined as 0.015 ± 0.002 %ID/gram.

For the molecule `COc1cc2ccccc2nc1COc1ccc(-c2nn(C)cc2-c2ccncc2)cc1` [Compound 1], in series [2], the IC50 was 400 ± 20 pM.

For orientation: IC50 means the point on the concentration scale where inhibition reaches its midpoint.

The values are drawn from article PMC4054929 (Bioorganic & medicinal chemistry, 2014).
